Consider 26 compounds from article PMC6233306 (Bioorganic & medicinal chemistry letters, 2018).

In brackets after ≈: the same amount, converted by molar mass. A value given as a limit tells only on which side of the number the result lay.

A short description of data set [1]: Chemical stability of coumarin core towards organic bases. Format: physicochemical. The following applies: prolonged time at ambient temperature; gives equimolar ring-opened product 5.
The next data set relates to Mtb H37Rv. Nature of the data set: Mtb H37Rv growth inhibition. Format: cell-based, Mycobacterium tuberculosis. The note with it: for MIC90: Mycobacterium tuberculosis, H37RV, read-out: Mtb H37Rv MIC90; for MICs: in words.
Data set [2] in a line: Kinetic aqueous solubility. The following applies: pH 7.4, water, kinetic from dmso stock. Format: physicochemical.

As for `Cc1cc2oc(=O)cc(-c3ccc(F)cc3)c2c(C)c1-c1ccc(CN2CCOCC2)cc1` [Compound 4], the “stability towards organic bases such as morpholine” value in data set [1] was “not stable”. Regarding `Cc1cc2nccc(-c3ccccc3)c2c(C)c1-c1ccc(CN2CCOCC2)cc1` [Compound 8], the MIC90 (commonly the lowest concentration that inhibits either 90% of growth or 90% of the strains tested, depending on the study) with Mtb H37Rv came to 0.45 µM (≈ 0.184 µg/mL). Still for that read-out and setting: to `Cc1cc2nccc(-c3ccccc3Cl)c2c(C)c1-c1ccc(CN2CCOCC2)cc1` [Compound 15a] belongs 0.3 µM (≈ 0.133 µg/mL); to `Cc1cc2nccc(-c3cccc(Cl)c3)c2c(C)c1-c1ccc(CN2CCOCC2)cc1` [Compound 15b], 1.5 µM (≈ 0.664 µg/mL). As for `Cc1cc2nccc(-c3ccc(Cl)cc3)c2c(C)c1-c1ccc(CN2CCOCC2)cc1` [Compound 15c], the MIC90 in the data set with Mtb H37Rv was greater than 80 µM.

With `Cc1cc2nccc(-c3ccccc3C#N)c2c(C)c1-c1ccc(CN2CCOCC2)cc1` [Compound 15d], in the data set with Mtb H37Rv, the MIC90 was 2.5 µM (≈ 1.08 µg/mL). For `CCc1ccccc1CNc1ccnc2cc(C)c(-c3ccc(CN4CCOCC4)cc3)c(C)c12` [Compound 15e], the MIC90 with Mtb H37Rv amounted to 2.5 µM (≈ 1.16 µg/mL). With `Cc1cc2nccc(-c3ccccc3C(=O)O)c2c(C)c1-c1ccc(CN2CCOCC2)cc1` [Compound 15f], the MIC90 with Mtb H37Rv worked out at 40 µM (≈ 18.1 µg/mL). With `Cc1cc2nccc(-c3ccccc3C(N)=O)c2c(C)c1-c1ccc(CN2CCOCC2)cc1` [Compound 15g], the MIC90 in the data set with Mtb H37Rv worked out at 20 µM (≈ 9.03 µg/mL). Consider `COc1cccc(-c2ccnc3cc(C)c(-c4ccc(CN5CCOCC5)cc4)c(C)c23)c1Cl` [Compound 15h], for which, in the data set with Mtb H37Rv, the MIC90 amounted to 10 µM (≈ 4.73 µg/mL). Turning to `Cc1cc2nccc(-c3cccnc3)c2c(C)c1-c1ccc(CN2CCOCC2)cc1` [Compound 15j], in data set [2], the kinetic solubility (in general, the concentration staying in solution when a stock, usually in DMSO, is diluted into the medium) is greater than 150 µM. Regarding `COc1ccncc1-c1ccnc2cc(C)c(-c3ccc(CN4CCOCC4)cc3)c(C)c12` [Compound 15k], the MIC90 with Mtb H37Rv came to 2.5 µM (≈ 1.1 µg/mL). Turning to `COc1ncccc1-c1ccnc2cc(C)c(-c3ccc(CN4CCOCC4)cc3)c(C)c12` [Compound 15l], in the data set on Mtb H37Rv, the MIC90 came out at 2.5 µM (≈ 1.1 µg/mL).

With `Cc1cc2nccc(-c3ccnn3C)c2c(C)c1-c1ccc(CN2CCOCC2)cc1` [Compound 15m], the MIC90 in the data set on Mtb H37Rv was 2.5 µM (≈ 1.03 µg/mL). This compound registered a kinetic solubility in data set [2] greater than 150 µM.

`Cc1cc2nccc(-c3cncnc3)c2c(C)c1-c1ccc(CN2CCOCC2)cc1` [Compound 15n]: the MIC90 with Mtb H37Rv is 2.5 µM (≈ 1.03 µg/mL). Moreover, the solubility (kinetic) in data set [2] is greater than 150 µM.

For the compound `Cc1cc2nccc(-c3ccccc3Cl)c2c(C)c1-c1ccncc1` [Compound 15p], the MIC90 in the data set with Mtb H37Rv was 5 µM (≈ 1.72 µg/mL). On the same count and under the same terms, to `CCOC(=O)c1cc(-c2ccccc2Cl)c2c(C)c(-c3ccncc3)c(C)cc2n1` [Compound 18] belongs 10 µM (≈ 4.17 µg/mL); to `Cc1cc2nc(CO)cc(-c3ccccc3Cl)c2c(C)c1-c1ccncc1` [Compound 19], 3.75 µM (≈ 1.41 µg/mL); to `Cc1cc2nc(C(C)(C)O)cc(-c3ccccc3Cl)c2c(C)c1-c1ccncc1` [Compound 20], greater than 40 µM.

Regarding `Cc1cc2nc(C(N)=O)cc(-c3ccccc3Cl)c2c(C)c1-c1ccncc1` [Compound 21a], the MIC90 in the data set on Mtb H37Rv stood at 1.25 µM (≈ 0.485 µg/mL). As for `CNC(=O)c1cc(-c2ccccc2Cl)c2c(C)c(-c3ccncc3)c(C)cc2n1` [Compound 21b], in the data set on Mtb H37Rv, the MIC90 came out at 0.8 µM (≈ 0.322 µg/mL) and the MICs entry was “sub-micromolar”. Also, the CFU reduction with H37Rv (lung, once-daily oral, dose-dependent, up to 50 mg/kg, 8-day acute model) is reported as roughly 4 log CFU. Moreover, in the data set on H37Rv (mice, up to the highest dose of 50 mg/kg), the tolerability entry is “no tolerability issue observed”.

As to `Cc1cc2nc(C(=O)NC(C)C)cc(-c3ccccc3Cl)c2c(C)c1-c1ccncc1` [Compound 21c], the MIC90 in the data set on Mtb H37Rv was 2.5 µM (≈ 1.07 µg/mL).

On to `Cc1cc2nc(C(=O)NCCF)cc(-c3ccccc3Cl)c2c(C)c1-c1ccncc1` [Compound 21d], for which, in the data set with Mtb H37Rv, the MIC90 is 1.25 µM (≈ 0.542 µg/mL). Take `Cc1cc2nc(C(=O)NCCO)cc(-c3ccccc3Cl)c2c(C)c1-c1ccncc1` [Compound 21e]: in the data set on Mtb H37Rv, the MIC90 stood at 0.3 µM (≈ 0.13 µg/mL) and the MICs result is listed as “sub-micromolar”. `Cc1cc2nc(C(=O)NCCN(C)C)cc(-c3ccccc3Cl)c2c(C)c1-c1ccncc1` [Compound 21f]: in the data set with Mtb H37Rv, the MIC90 turned out to be 0.3 µM (≈ 0.138 µg/mL) and the MICs entry is reported as “sub-micromolar”.

As to `Cc1cc2nc(C(=O)N3CCCC3)cc(-c3ccccc3Cl)c2c(C)c1-c1ccncc1` [Compound 23b], in the data set with Mtb H37Rv, the MIC90 stood at 5 µM (≈ 2.21 µg/mL).
